SMILES strings stand for the structures.

One assay has as its system Panc 02.13. Nature of the assay: MTT cell cytotoxicity assay, Panc 02.13. Type of assay: cell-based. The following applies: Homo sapiens, 48 hours. On the procedure:
(§1) Three human pancreatic cancer cell lines (Panc-1, Panc 02.13, Panc 10.05) were purchased from American Type Culture Collection (ATCC, Manassas, Va., USA). Panc 02.13 and Panc 10.05 were grown in RPMI 1640 medium supplemented with 15% FBS, 4.5 g/L glucose, 10 mM HEPES, and 1.0 mM sodium pyruvate and 10 Units/ml human insulin; while PANC-1 was grown in Dulbecco's modified Eagle's medium supplemented with 10% FBS. They were maintained in a humidified 5% CO2 atmosphere at 37° C. and the culture medium was changed once in 2 days.
(§2) The cytotoxic effect of CuB on these three cancer cell lines were determined using MTT (3-[4,5-dimethylthiazol-2-yl]-2,5-diphenyl tetrazolium bromide) labeled cell cytotoxicity assay. A total of 1×10^4 cells were seeded into a 96-well plate for 24 hours prior to cucurbitacin B (CuB) treatment. They were then treated with different dosages of CuB for 48 hours. After the treatment, 20 μl of MTT (5 mg/ml) was added to each well and incubated for 4 hrs. Then the medium was discarded and 100 μl of dimethyl sulfoxide was added. The absorbance at 570 nm was then measured by FLUOstar OPTIMA equipment (BMG, LABTECH GmbH, Germany). The percentage of inhibition against different dosages of CuB were plotted using the Prism software and the 50% inhibition concentration (IC50) were obtained. […]

Another assay relates to Panc 10.05. Description: MTT cell cytotoxicity assay, Panc 10.05. The following applies: Homo sapiens, Panc1005, 48 hours. Type of assay: cell-based. Here is the method: as §1, §2
(In general: Formazan colour is commonly taken as a measure of viable cells.)

Another assay deals with HL60 and U937 cells. Description: Cytoskeletal staining (F-actin, confocal). It counts as cell-based, human. The settings on record: two days. On the procedure:
HL60 and U937 cells were incubated with cucurbitacin B for two days at 37° C. Then the cells were centrifuged and fixed in 4% paraformaldehyde, permeabilized with 0.1% Triton X-100 in PBS, and incubated with FITC-conjugated anti-β-tubulin antibody, followed by rhodamine-phalloidin to detect filamentous F-actin. Confocal images were collected on a Leica microscope. […] Untreated HL 60 and U937 cells were depicted in FIGS. 15A and 15C, and cultured HL 60 and U937 cells were depicted in FIGS. 15B and 15D. • 6.2.8 Cucurbitacin B and Cucurbitacin D Inhibited Stat3 Activation and Stimulated Erk and Hsp27 Activation in HepG2, HT29 and MCF-7 Cells

The subject of another assay is Prostate cancer. Nature of the assay: SRB growth inhibition, prostate cancer lines of the NCI panel. It counts as cell-based. The following applies: Homo sapiens, 48 hours. An excerpt: Human cancer cell lines from the 59-NCI Cancer Cell Line Panel including leukemia, melanoma and cancers of breast, brain, colon, lung, ovary, prostate and kidney, were purchased from the National Institute of Cancer (USA). The growth inhibition (GI50) of these cell lines treated with cucurbitacin B and cucurbitacin D in various concentrations was investigated.
59 human cancer cell lines were maintained in RPMI 1640 (Invitrogen Life Technologies, CA, USA) supplemented with 5% Fetal Bovine Serum, 2 mM L-glutamine and 1% Penicillin/Streptomycin (Invitrogen Life Technologies) at 37° C. with 5% CO2. All chemicals were purchased from Sigma (St. Louis, Mo., USA) unless specified otherwise.
Sulforhodamine B (SRB) assay was applied to determine the cytostatic effect of cucurbitacin B and cucurbitacin D. SRB is a dye that binds to cellular proteins and will be dissolved in base. The biomass of total protein can be measured at 520 nm using a plate reader.
Cells were inoculated into 96-well microtiter plates including “Time zero” (Tz) plates in 100 μl at cell concentrations from 5000 to 40,000 cells per well according to NCI guideline. The cells were incubated at 37° C. with 5% CO2 for 24 hours. […] Bound SRB was solubilized with 100-200 ul per well of 10 mM trizma base and absorbance was measured at a wavelength of 520 nm. The percentage of growth inhibition was calculated as follows: […]

In assay [1] the test system is Panc-1 and SW cells. Description: Cell cycle analysis by flow cytometry, pancreatic cells. It counts as cell-based, human. The following applies: different periods. Here is the method:
Panc-1 and SW cells were incubated with cucurbitacin B for different periods at 37° C. At specific time points, cells were washed and fixed with chilled 80% ethanol, and incubated on ice for 30 min. prior to staining with propidium iodide. All analyses were performed by flow cytometry.
(In general: A flow cytometer gives signals particle by particle.)

The subject of assay [2] is Panc-1 and SW cells. Description: Annexin V / PI apoptosis by flow cytometry, pancreatic cells. Type of assay: cell-based, human. The following applies: 48 h, increasing concentration. On the procedure:
Panc-1 and SW cells was incubated with vary doses of cucurbitacin B for 48 h at 37° C. At the end of treatment, cells were washed twice with cold PBS and resuspended at 2×10^6 cells/ml in 1×binding buffer. The cells were then stained with Annexin V and propidium iodide. All analyses were performed by flow cytometry.

Assay [3] deals with Human pancreatic cancer cell line Panc-1. Nature of the assay: Hollow fiber assay, Panc-1. Type of assay: in vivo, nude mice. The settings on record: up to 8 days. On the procedure:
The hollow fiber assay (HFA) was developed by the NCI as a high-throughput, preliminary in vivo screening assay for the evaluation of anti-cancer agents.
Human pancreatic cancer cell line Panc-1 were in vitro cultured inside hollow fibers for overnight, followed by in vivo implantation at s.c. sites of the nude mice. Mice were treated with vehicle control (0.5% CMC), positive control (100 mg/kg Gemcitabine) and 3 doses of cucurbitacin B (0.1 mg/kg, 0.5 mg/kg and 1.0 mg/kg) for up to 8 days. Then the fibers were excised and analyzed for cell viability by MTT assay. An additional group, the growth control group was also included in the assay. Mice in this group were sacrificed on the first day of treatment, and fibers were excised and analyzed for cell viability by MTT assay. The efficacies of cucurbitacin B against Panc-1 were expressed as the inhibited (or not) net growth percentage of the cancer cells when compared to the vehicle control group.

For the compound `CC(=O)OC(C)(C)/C=C/C(=O)[C@](C)(O)C1[C@H](O)C[C@@]2(C)C3CC=C4C(C[C@H](O)C(=O)C4(C)C)[C@]3(C)C(=O)C[C@]12C` (some centres unmarked) [cucurbitacin B], the GI50 with Panc 02.13 was found to be 5.13 µM; in the assay on Panc 10.05 it was 5.81 µM; in the assay on Prostate cancer, 0.017 µM. Further, the “effect on cytoskeletal network (F-actin)” value in the assay on HL60 and U937 cells was “rapid and improper polymerization of the F-actin network”. Also, the cell cycle effect entry with Panc-1 and SW cells [1] was “arrest at G1 and/or G2 phase”. Further, in the assay on Panc-1 and SW cells [2], the apoptotic cells result is reported as “the percentage of apoptic cells rise”. Also, in assay [3] (0.1 mg/kg and 0.5 mg/kg), the “net-growth of Panc-1 compared to the vehicle control group” value is recorded as “about 40%”. The “net cell growth of Panc-1 in hollow fibers” value in assay [3] (0.1 mg/kg, 0.5 mg/kg and 1.0 mg/kg) was “potently inhibited”.

For orientation: GI50 means the concentration that inhibits growth by half. Low values mean more potent growth inhibition, high ones less potent growth inhibition.

The values above are taken from patent US20090247495A1, “CU[…] AND USES THEREOF” (priority 2007, published 2009).
